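Grown in 96-well plates, cells were treated for 48 hours with each compound at five concentrations. Insufficient inhibition: endpoint recorded as highest concentration tested. TGI: total growth inhibition.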
Legend:
Assay in all cases: DTP human tumour cell line panel, 48 h
HT29 colon = tested on: HT29 colon
ACHN renal = tested on: ACHN renal
SN12C renal = tested on: SN12C renal
SF-539 CNS = tested on: SF-539 CNS
786-0 renal = tested on: 786-0 renal
MDA-N = tested on: MDA-N
SF-268 CNS = tested on: SF-268 CNS
SF-295 CNS = tested on: SF-295 CNS
T-47D breast = tested on: T-47D breast
HCT-116 colon = tested on: HCT-116 colon
UACC-62 melanoma = tested on: UACC-62 melanoma
RXF 393 renal = tested on: RXF 393 renal
OVCAR-5 ovarian = tested on: OVCAR-5 ovarian
HOP-62 NSCLC = tested on: HOP-62 NSCLC
NCI-H522 lung = tested on: NCI-H522 lung
SK-MEL-5 melanoma = tested on: SK-MEL-5 melanoma
SW-620 colon = tested on: SW-620 colon
SK-MEL-2 melanoma = tested on: SK-MEL-2 melanoma
MALME-3M melanoma = tested on: MALME-3M melanoma
OVCAR-3 ovarian = tested on: OVCAR-3 ovarian
OVCAR-4 ovarian = tested on: OVCAR-4 ovarian
U251 CNS = tested on: U251 CNS
MDA-MB-231 breast = tested on: MDA-MB-231 breast
UO-31 renal = tested on: UO-31 renal
MCF7 breast = tested on: MCF7 breast
HOP-92 NSCLC = tested on: HOP-92 NSCLC
OVCAR-8 ovarian = tested on: OVCAR-8 ovarian
DU-145 prostate = tested on: DU-145 prostate
SK-OV-3 ovarian = tested on: SK-OV-3 ovarian
MDA-MB-435 = tested on: MDA-MB-435
PC-3 prostate = tested on: PC-3 prostate
COLO 205 colon = tested on: COLO 205 colon
HCT-15 colon = tested on: HCT-15 colon
NCI/ADR-RES ovarian = tested on: NCI/ADR-RES ovarian
SNB-19 CNS = tested on: SNB-19 CNS
KM12 colon = tested on: KM12 colon
NCI-H23 lung = tested on: NCI-H23 lung
SK-MEL-28 melanoma = tested on: SK-MEL-28 melanoma
TK-10 renal = tested on: TK-10 renal
HCC-2998 colon = tested on: HCC-2998 colon
A549 NSCLC = tested on: A549 NSCLC
NCI-H460 lung = tested on: NCI-H460 lung
M14 melanoma = tested on: M14 melanoma
RPMI-8226 leukemia = tested on: RPMI-8226 leukemia
K-562 leukemia = tested on: K-562 leukemia
SR leukemia = tested on: SR leukemia
CAKI-1 renal = tested on: CAKI-1 renal
A498 renal = tested on: A498 renal
MOLT-4 leukemia = tested on: MOLT-4 leukemia
BT-549 breast = tested on: BT-549 breast
CCRF-CEM leukemia = tested on: CCRF-CEM leukemia
HL-60(TB) leukemia = tested on: HL-60(TB) leukemia
LOX IMVI melanoma = tested on: LOX IMVI melanoma
IGROV1 ovarian = tested on: IGROV1 ovarian
EKVX NSCLC = tested on: EKVX NSCLC
NCI-H226 lung = tested on: NCI-H226 lung
HS 578T breast = tested on: HS 578T breast
UACC-257 melanoma = tested on: UACC-257 melanoma
SNB-75 CNS = tested on: SNB-75 CNS

C[C@H]1OC(=O)[C@@H]2N=NN(Cc3ccccc3)[C@H]12
TGI (HT29 colon): > 100 µM
TGI (ACHN renal): > 100 µM
TGI (SN12C renal): > 100 µM
TGI (SF-539 CNS): > 100 µM
TGI (786-0 renal): > 100 µM
TGI (MDA-N): > 100 µM
TGI (SF-268 CNS): > 100 µM
TGI (SF-295 CNS): > 100 µM
TGI (T-47D breast): > 100 µM
TGI (HCT-116 colon): > 100 µM
TGI (UACC-62 melanoma): > 100 µM
TGI (RXF 393 renal): > 100 µM
TGI (OVCAR-5 ovarian): > 100 µM
TGI (HOP-62 NSCLC): > 100 µM
TGI (NCI-H522 lung): > 100 µM
TGI (SK-MEL-5 melanoma): > 100 µM
TGI (SW-620 colon): > 100 µM
TGI (SK-MEL-2 melanoma): > 100 µM
TGI (MALME-3M melanoma): > 100 µM
TGI (OVCAR-3 ovarian): > 100 µM
TGI (OVCAR-4 ovarian): > 100 µM
TGI (U251 CNS): > 100 µM
TGI (MDA-MB-231 breast): > 100 µM
TGI (UO-31 renal): > 100 µM
TGI (MCF7 breast): > 100 µM
TGI (HOP-92 NSCLC): > 100 µM
TGI (OVCAR-8 ovarian): > 100 µM
TGI (DU-145 prostate): > 100 µM
TGI (SK-OV-3 ovarian): > 100 µM
TGI (MDA-MB-435): > 100 µM
TGI (PC-3 prostate): > 100 µM
TGI (COLO 205 colon): > 100 µM
TGI (HCT-15 colon): > 100 µM
TGI (NCI/ADR-RES ovarian): > 100 µM
TGI (SNB-19 CNS): > 100 µM
TGI (KM12 colon): > 100 µM
TGI (NCI-H23 lung): > 100 µM
TGI (SK-MEL-28 melanoma): > 100 µM
TGI (TK-10 renal): > 100 µM
TGI (HCC-2998 colon): > 100 µM
TGI (A549 NSCLC): > 100 µM
TGI (NCI-H460 lung): > 100 µM
TGI (M14 melanoma): > 100 µM
TGI (RPMI-8226 leukemia): > 100 µM
TGI (K-562 leukemia): > 100 µM
TGI (SR leukemia): > 100 µM
TGI (CAKI-1 renal): > 100 µM
TGI (A498 renal): > 100 µM
TGI (MOLT-4 leukemia): > 100 µM

CCN1C(=O)C(=C/C=C/c2ccc(N(CC)CC)cc2)C(=O)N(CC)C1=S
TGI (HT29 colon): > 100 µM
TGI (ACHN renal): > 100 µM
TGI (SN12C renal): > 100 µM
TGI (BT-549 breast): > 100 µM
TGI (SF-539 CNS): > 100 µM
TGI (786-0 renal): > 100 µM
TGI (MDA-N): > 100 µM
TGI (SF-268 CNS): > 100 µM
TGI (SF-295 CNS): > 100 µM
TGI (T-47D breast): > 100 µM
TGI (HCT-116 colon): > 100 µM
TGI (UACC-62 melanoma): > 100 µM
TGI (RXF 393 renal): > 100 µM
TGI (OVCAR-5 ovarian): > 100 µM
TGI (HOP-62 NSCLC): 50.7 µM
TGI (SK-MEL-5 melanoma): > 100 µM
TGI (CCRF-CEM leukemia): > 100 µM
TGI (SW-620 colon): > 100 µM
TGI (SK-MEL-2 melanoma): > 100 µM
TGI (OVCAR-3 ovarian): 54.9 µM
TGI (HL-60(TB) leukemia): > 100 µM
TGI (OVCAR-4 ovarian): > 100 µM
TGI (U251 CNS): > 100 µM
TGI (MDA-MB-231 breast): > 100 µM
TGI (UO-31 renal): > 100 µM
TGI (MCF7 breast): > 100 µM
TGI (HOP-92 NSCLC): > 100 µM
TGI (LOX IMVI melanoma): > 100 µM
TGI (OVCAR-8 ovarian): > 100 µM
TGI (IGROV1 ovarian): > 100 µM
TGI (EKVX NSCLC): > 100 µM
TGI (DU-145 prostate): > 100 µM
TGI (SK-OV-3 ovarian): > 100 µM
TGI (MDA-MB-435): > 100 µM
TGI (PC-3 prostate): > 100 µM
TGI (COLO 205 colon): > 100 µM
TGI (NCI-H226 lung): > 100 µM
TGI (HCT-15 colon): > 100 µM
TGI (NCI/ADR-RES ovarian): > 100 µM
TGI (SNB-19 CNS): > 100 µM
TGI (KM12 colon): > 100 µM
TGI (NCI-H23 lung): > 100 µM
TGI (SK-MEL-28 melanoma): > 100 µM
TGI (TK-10 renal): > 100 µM
TGI (HCC-2998 colon): > 100 µM
TGI (A549 NSCLC): > 100 µM
TGI (NCI-H460 lung): > 100 µM
TGI (M14 melanoma): > 100 µM
TGI (RPMI-8226 leukemia): > 100 µM
TGI (HS 578T breast): > 100 µM
TGI (K-562 leukemia): > 100 µM
TGI (CAKI-1 renal): > 100 µM
TGI (UACC-257 melanoma): > 100 µM
TGI (MOLT-4 leukemia): > 100 µM

COC(=O)[C@H](Cc1ccccc1)NC(=O)N(CCC#N)CCN(C(=O)N[C@@H](Cc1ccccc1)C(=O)OC)c1ccccc1
TGI (ACHN renal): 33.9 µM
TGI (SN12C renal): 89 µM
TGI (BT-549 breast): > 100 µM
TGI (SF-539 CNS): 41.1 µM
TGI (786-0 renal): 50.8 µM
TGI (MDA-N): 33.8 µM
TGI (SF-268 CNS): 45.6 µM
TGI (SF-295 CNS): > 100 µM
TGI (T-47D breast): 41.6 µM
TGI (HCT-116 colon): 82.5 µM
TGI (UACC-62 melanoma): 13.6 µM
TGI (RXF 393 renal): 37.7 µM
TGI (OVCAR-5 ovarian): > 100 µM
TGI (HOP-62 NSCLC): > 100 µM
TGI (SK-MEL-5 melanoma): 46.2 µM
TGI (CCRF-CEM leukemia): 87 µM
TGI (SW-620 colon): > 100 µM
TGI (SK-MEL-2 melanoma): 39.3 µM
TGI (OVCAR-3 ovarian): 43.4 µM
TGI (OVCAR-4 ovarian): 69.2 µM
TGI (MDA-MB-231 breast): 71 µM
TGI (UO-31 renal): 31.9 µM
TGI (MCF7 breast): > 100 µM
TGI (HOP-92 NSCLC): 39.4 µM
TGI (SNB-75 CNS): 45.3 µM
TGI (LOX IMVI melanoma): 41.3 µM
TGI (OVCAR-8 ovarian): > 100 µM
TGI (IGROV1 ovarian): 42.9 µM
TGI (EKVX NSCLC): 73.2 µM
TGI (DU-145 prostate): 74.5 µM
TGI (SK-OV-3 ovarian): > 100 µM
TGI (MDA-MB-435): 39.2 µM
TGI (PC-3 prostate): > 100 µM
TGI (COLO 205 colon): 56.2 µM
TGI (NCI-H226 lung): 89 µM
TGI (HCT-15 colon): > 100 µM
TGI (NCI/ADR-RES ovarian): > 100 µM
TGI (SNB-19 CNS): > 100 µM
TGI (KM12 colon): > 100 µM
TGI (NCI-H23 lung): 93.6 µM
TGI (SK-MEL-28 melanoma): 33.9 µM
TGI (TK-10 renal): 41.6 µM
TGI (HCC-2998 colon): > 100 µM
TGI (A549 NSCLC): > 100 µM
TGI (M14 melanoma): 55.1 µM
TGI (RPMI-8226 leukemia): 43.9 µM
TGI (HS 578T breast): > 100 µM
TGI (CAKI-1 renal): 41 µM
TGI (A498 renal): 39.8 µM
TGI (UACC-257 melanoma): 37.5 µM
TGI (MOLT-4 leukemia): 41.3 µM

— PubChem BioAssay (NCI)
